The values below are quoted from earlier work in USRE48948E1, “Clonidine compounds in a biodegradable polymer” (priority 2008, dated 2022).

Counter-ions that a name gives are not always drawn.

The test system of series [1] is post-surgical knee pain. Conditions: Intra-articular administration of 150 mcg.
For series [2] the following is noted: in vivo.

Regarding `Clc1cccc(Cl)c1N=C1NCCN1` [clonidine HCL], the “relief of post-surgical knee pain” value in series [1] is given as “as effective as morphine”. With `Clc1cccc(Cl)c1N=C1NCCN1` [clonidine, 2,6-dichloro-N-2-imidazolidinyldenebenzenamine], in series [2], the “plasma concentration above which antihypertensive effects become evident” value is “above 500 pg/mL” and the “systemic concentration associated with spinal analgesia” value was “approximately 2 ng/mL”.
